# Patent US20050090402A1, “Use of defined copolymers as adjuvants and agents in the agrotechnical domain” (priority 2001, published 2005)
# Experiments:
# Assay type in all cases: in vivo
# Conditions in all cases: bentazone 0.125 kg/ha, no adjuvant, 100 = complete destruction, 0 = no damage
# [1] = test system: soybeans (Glycine max; GLXMA); assay: Herbicidal efficacy of bentazone tank mixes, greenhouse post-emergence, soybeans
# Method: (§1) The copolymers shown in Table 1 were applied by the tank mix method together with Basagran (480 g/l bentazone). The application rate per ha was 0.125 kg of bentazone and 2, 1.0 and 0.5 kg of a.i./ha copolymer or comparative surfactant Wettol LF 700 (alcohol alkoxylate). The herbicidal effect was assessed in a greenhouse experiment. The test plants used were soybeans (Glycine max; GLXMA), Chinese hemp (Abutilon theophrasti; ABUTH), white goosefoot (Chenopodium album; CHEAL) and ladysthumb (Polygonum persicaria; POLPE). These plants were either sown separately for each species or first grown separately as seedlings and transplanted into the experimental containers a few days before the treatment. The experimental containers used were plastic pots containing loamy sand and approximately 3.0% of humus as substrate. […] The application rate for the post-emergence treatment was 0.125 kg a.i./ha bentazone and 2.0, 1.0 or 0.5 kg a.i./ha copolymer or comparative surfactant.
# (§2) The test period extended over 2 to 4 weeks. During this time, the plant species were kept specifically at night-time temperatures above 14° C. and day-time temperatures between 20 and 31° C., tended, and their response to the individual treatments was evaluated.
# (§3) Evaluation was done using a scale from 0 to 100. […]
# [2] = test system: Chinese hemp (Abutilon theophrasti; ABUTH); assay: Herbicidal efficacy of bentazone tank mixes, greenhouse post-emergence, Chinese hemp
# Method: as §1, §2, §3
# [3] = test system: white goosefoot (Chenopodium album; CHEAL); assay: Herbicidal efficacy of bentazone tank mixes, greenhouse post-emergence, white goosefoot
# Method: as §1, §2, §3
# [4] = test system: ladysthumb (Polygonum persicaria; POLPE); assay: Herbicidal efficacy of bentazone tank mixes, greenhouse post-emergence, ladysthumb
# Method: as §1, §2, §3
structure (smiles),measurement,setting,value
"CC(C)N1C(=O)c2ccccc2NS1(=O)=O [Bentazone, bentazone]",herbicidal effect GLXMA (scale 0 to 100),[1],0
same,herbicidal effect ABUTH (scale 0 to 100),[2],64
same,herbicidal effect CHEAL (scale 0 to 100),[3],9
same,herbicidal effect POLPE (scale 0 to 100),[4],86
